From patent US20220296595A1, “CDK INHIBITORS” (QILU REGOR THERAPEUTICS INC., priority 2019, published 2022)
Where two headings read alike, the source gives them in different places.

Key:
CDK6/CyclinD3 = target: T1, CDK6/CyclinD3 (Homo sapiens, UniProt Q00534); assay: Assay for inhibition of CDK6/CyclinD3 (Caliper microfluidic kinase assay); assay type: biochemical
T1 construct: purchased Carna 04-107
Procedure, shortened: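 IC50s came from four-parameter dose-response fits of microfluidic substrate/product separation data. Reactions held 2 nM CDK6/CyclinD3, 300 μM ATP and 1 μM 5-FAM peptide FL-34 in pH 7.5 HEPES/MgCl2 buffer, ran 3 hours at room temperature, then were quenched with EDTA.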

[1] = test system: phosphorylation of Retinoblastoma Protein (pRb Ser807/811 or Ser780) in T47D cells; assay: Inhibition of phosphorylation of retinoblastoma protein (pRb) in T47D cell (ELISA); assay type: cell-based, human; details: Homo sapiens, T47D, read-out: Phospho T47D Ser807 IC50, pRb Ser807 phosphorylation, T47D cells
Procedure, shortened: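 T47D cells in RPMI 1640 + 10% FBS, adhered overnight, then treated 24 h with 3-fold compound titrations (top concentration […]). Lysates assayed by sandwich ELISA for pRb Ser807/811 or Ser780 with HRP/TMB detection. IC50 from 4-parameter sigmoidal fit.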

CDK2/CyclinE1 = target: T2, CDK2/CyclinE1 (Homo sapiens, UniProt P24941); assay: Assay for inhibition of CDK2/CyclinE1 (Caliper microfluidic kinase assay); assay type: biochemical; details: read-out: CDK2 IC50
T2 construct: purchased SignalChem C29-18G
Procedure, shortened: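 IC50 came from 4-parameter fits of substrate-to-product conversion, separated on a Caliper chip after an EDTA stop. Reactions ran 3 hours at room temperature with 100 μM ATP, 5 μM fluorescent FL-18 peptide and 5 nM enzyme in 100 mM HEPES pH 7.5, 10 mM MgCl2.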

CDK4/CyclinD1 = target: T3, CDK4/CyclinD1 (Homo sapiens, UniProt P11802); assay: Assay for inhibition of CDK4/CyclinD1 (Caliper microfluidic kinase assay); assay type: biochemical
T3 construct: purchased Thermofisher PR8064A
T3 sequence (P11802 whole entry): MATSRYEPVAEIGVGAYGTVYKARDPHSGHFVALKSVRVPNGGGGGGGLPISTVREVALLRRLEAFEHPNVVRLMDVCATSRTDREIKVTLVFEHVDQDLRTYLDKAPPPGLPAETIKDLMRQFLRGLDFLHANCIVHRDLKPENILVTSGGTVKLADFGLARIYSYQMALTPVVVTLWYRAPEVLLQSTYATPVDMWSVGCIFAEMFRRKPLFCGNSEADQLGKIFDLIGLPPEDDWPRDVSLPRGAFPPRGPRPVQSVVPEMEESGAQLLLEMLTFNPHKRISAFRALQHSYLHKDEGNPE
T3 sequence (P24385 whole entry partner): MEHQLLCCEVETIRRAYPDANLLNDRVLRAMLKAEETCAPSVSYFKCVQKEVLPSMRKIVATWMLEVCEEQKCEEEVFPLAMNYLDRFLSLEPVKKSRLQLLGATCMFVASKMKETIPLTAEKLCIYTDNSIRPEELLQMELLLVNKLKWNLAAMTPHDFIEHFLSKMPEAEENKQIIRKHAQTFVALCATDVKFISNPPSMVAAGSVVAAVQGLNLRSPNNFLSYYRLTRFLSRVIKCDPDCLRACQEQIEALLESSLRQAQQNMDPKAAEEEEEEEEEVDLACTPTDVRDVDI
Procedure, shortened: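 IC50 was obtained by 4-parameter sigmoidal fitting after 1 nM CDK4/CyclinD1, 200 μM ATP and 1 μM FL-34 substrate reacted for 3 h at room temperature (pH 7.5 HEPES, 10 mM MgCl2). After EDTA quench, substrate and product were separated and detected on a Caliper microfluidic chip.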

T47D breast cancer cells = assay: Anti-proliferation assay in T47D cell (Cyquant, day 6); assay type: cell-based, human; details: Homo sapiens, T47D, anti-proliferation, T47D cells; read-out: T47D IC50
Procedure, shortened: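 A ten-point, 3-fold compound series (10 μM down to 0.51 nM) was applied to overnight-settled cells in 10% FBS RPMI 1640, and DNA content was read by CyQuant fluorescence 6 days later. An untreated plate read before dosing served as baseline for subtraction before IC50 fitting.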

T1 sequence (Q00534 whole entry): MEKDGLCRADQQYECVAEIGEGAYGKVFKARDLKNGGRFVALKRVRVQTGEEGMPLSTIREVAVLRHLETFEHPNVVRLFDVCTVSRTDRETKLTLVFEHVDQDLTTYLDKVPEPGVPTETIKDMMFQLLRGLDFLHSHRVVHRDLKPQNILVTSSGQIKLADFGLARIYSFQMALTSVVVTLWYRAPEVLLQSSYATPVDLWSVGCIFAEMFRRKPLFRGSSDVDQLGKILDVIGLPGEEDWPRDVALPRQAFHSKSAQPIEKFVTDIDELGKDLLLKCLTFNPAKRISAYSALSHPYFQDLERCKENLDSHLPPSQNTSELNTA
T1 sequence (P30281 whole entry partner): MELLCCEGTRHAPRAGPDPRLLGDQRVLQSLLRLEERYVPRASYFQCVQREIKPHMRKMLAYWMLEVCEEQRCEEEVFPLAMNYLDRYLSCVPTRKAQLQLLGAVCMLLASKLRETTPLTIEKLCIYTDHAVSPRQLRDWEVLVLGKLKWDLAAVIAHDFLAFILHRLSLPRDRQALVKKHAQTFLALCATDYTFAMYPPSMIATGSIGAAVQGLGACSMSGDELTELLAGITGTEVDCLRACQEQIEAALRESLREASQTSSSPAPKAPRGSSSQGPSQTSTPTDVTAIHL

Row | SMILES | IC50 (CDK6/CyclinD3; CDK6/CyclinD3, 300 μM ATP) [nM] | IC50 [1] [nM] | IC50 (CDK2/CyclinE1; CDK2/CyclinE1, 100 μM ATP) [nM] | IC50 (CDK4/CyclinD1; CDK4/CyclinD1, 200 μM ATP) [nM] | IC50 (T47D breast cancer cells) [nM] | IC50 (CDK6/CyclinD3; CDK6/CyclinD3) [nM] | IC50 (CDK2/CyclinE1; CDK2/CyclinE1) [nM] | IC50 (CDK4/CyclinD1; CDK4/CyclinD1) [nM]
1 | CC(C)c1cnn2ccc(-c3ccnc(Nc4ccc(S(N)(=O)=O)cc4)n3)cc12 [compound 165] | 100 to 1000 | 100 to 500 | < 10 | 10 to 100 | < 100 |  |  | 
2 | CCN1CCC(COc2cc(Nc3ncc(F)c(-c4ccn5ncc(C(C)C)c5c4)n3)ccn2)CC1 [compound 45] | 10 to 100 | 500 to 1000 | < 10 | < 10 | 100 to 500 |  |  | 
3 | COc1nc(-c2nc(Nc3ccc(N4CCC(N(C)C)CC4)cn3)ncc2F)cc2c1ncn2C(C)C [compound 70] |  | < 100 |  |  | 100 to 500 | 10 to 100 | > 1000 | < 10
4 | COc1nc(-c2nc(Nc3ccc(N4CCNCC4)cn3)ncc2F)cc2c1nc(C)n2C(C)C [Synthetic Example 106] | 10 to 100 | < 100 | > 1000 | < 10 | 100 to 500 |  |  | 
5 | CNC1CCN(c2ccc(Nc3nccc(-c4ccn5ncc(C(C)C)c5c4)n3)nc2)C(=O)C1 (single isomer, unassigned) [Synthetic Example 205, 1-[6-[[4-(3-isopropylpyrazolo[1,5-a]pyridin-5-yl)pyrimidin-2-yl]amino]-3-pyridyl]-4-(methylamino)piperidin-2-one] | < 10 | < 100 | < 10 | < 10 | < 100 |  |  | 
6 | CC(C)c1cnn2ccc(-c3ccnc(Nc4ccc(N5CCCNC5=O)cn4)n3)cc12 [Synthetic Example 1] | 10 to 100 | < 100 | 100 to 1000 | < 10 | < 100 |  |  | 
7 | CC(C)c1cnn2ccc(-c3ccnc(Nc4ccc(N5CCC=CC5=O)cn4)n3)cc12 [compound 184] | 10 to 100 | < 100 | 10 to 100 | < 10 | < 100 |  |  | 
8 | CC(C)c1cnn2ccc(-c3nc(Nc4ccc(N5CCOCC5=O)cc4)ncc3F)cc12 [compound 25] | 10 to 100 | < 100 | < 10 | < 10 | < 100 |  |  | 
9 | COc1nc(-c2nc(Nc3ccc(N4CCOCC4=O)cn3)ncc2F)cc2c1nc(C)n2C(C)C [compound 98] |  | < 100 |  |  | < 100 | 10 to 100 | > 1000 | < 10
10 | COc1nc(-c2ccnc(Nc3ccc(N4CCC(C)(N)C4)cn3)n2)cc2c1ncn2C(C)C (stereo not drawn) [compound 117] | 10 to 100 | 100 to 500 | > 1000 | 10 to 100 | 100 to 500 |  |  | 
11 | COc1nc(-c2ccnc(Nc3ccc(N4CCN(CCF)CC4)cn3)n2)cc2c1ncn2C(C)C [compound 123] | 10 to 100 | 100 to 500 | > 1000 | < 10 | 100 to 500 |  |  | 
12 | CCN1CCN(c2ccc(Nc3nccc(-c4ccn5ncc(C(C)C)c5c4)n3)nc2)C(=O)C1 [compound 235] | 10 to 100 | < 100 | 10 to 100 | < 10 | < 100 |  |  | 
